Each compound was assayed against T1, human p38alfa (SAPKa) enzyme (Homo sapiens, UniProt Q16539) (assay: Inhibition assay: p38alfa enzymatic activity (FRET, biotinylated ATF2 substrate)). Details: 1 h pre-incubation; ATF2 0.62 μM and ATP 60 μM; 1 h at 25° C.; read-out: p38α IC50.
T1 construct: purchased University of Dundee
Assay type: biochemical
Procedure: Various concentrations of the test compound or vehicle controls were pre-incubated for one hour with 0.055 μg/ml of the human p38alfa (SAPKa) enzyme (obtained from University of Dundee). […] Addition of the detection reagents, streptavidin-XL665 and anti-phosphoresidue antibody coupled to Europium cryptate, caused the juxtaposition of the cryptate and the XL665 fluorophore, resulting in fluorescence energy transfer (FRET). The FRET intensity depends on the amount of bounded cryptate antibody, which is proportional to the extent of substrate phosphorylation. FRET intensity was measured using Victor 2V spectrofluorometer.
Data were analyzed by non-linear regression (Hill equation) to generate a dose-response curve.

T1 sequence (Q16539 whole entry): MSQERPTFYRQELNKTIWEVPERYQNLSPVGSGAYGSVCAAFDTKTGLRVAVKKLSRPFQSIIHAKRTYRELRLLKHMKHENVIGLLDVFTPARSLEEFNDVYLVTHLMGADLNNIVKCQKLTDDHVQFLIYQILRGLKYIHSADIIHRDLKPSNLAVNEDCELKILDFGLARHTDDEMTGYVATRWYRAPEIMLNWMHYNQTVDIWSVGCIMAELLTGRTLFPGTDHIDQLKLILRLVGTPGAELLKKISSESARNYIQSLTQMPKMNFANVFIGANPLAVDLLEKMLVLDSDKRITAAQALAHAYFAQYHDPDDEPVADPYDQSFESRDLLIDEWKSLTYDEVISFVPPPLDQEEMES

SMILES | IC50 [nM]
Cc1ccc2c(NC3CC3)noc2c1-c1ccc2c(c1)NC(=O)C21CCCC1 [Example 1, 6′-(3-(Cyclopropylamino)-6-methylbenzo[d]isoxazol-7-yl)spiro[cyclopentane-1,3′-indolin]-2′-one] | 0.9
O=C1Nc2cc(-c3cccc4c(NC5CC5)noc34)ccc2C12CCCC2 [Example 2, 6′-(3-(Cyclopropylamino)benzo[d]isoxazol-7-yl)spiro[cyclopentane-1,3′-indolin]-2′-one] | 39
O=C1Nc2cc(-c3cccc4c(NC5CC5)noc34)c(Cl)cc2C12CCCC2 [Example 3, 5′-Chloro-6′-(3-(cyclopropylamino)benzo[d]isoxazol-7-yl)spiro[cyclopentane-1,3′-indolin]-2′-one] | 4
Cc1ccc2c(NC3CC3)noc2c1-c1ccc2c(c1)NC(=O)C21CCOCC1 [Example 4, 6-(3-(Cyclopropylamino)-6-methylbenzo[d]isoxazol-7-yl)-2′,3′,5′,6′-tetrahydrospiro [indoline-3,4′-pyran]-2-one] | 0.2
Cc1ccc2c(NC3CC3)noc2c1-c1ccc2c(c1)NC(=O)C21CCC(F)(F)CC1 [Example 5, 6′-(3-(Cyclopropylamino)-6-methylbenzo[d]isoxazol-7-yl)-4,4-difluorospiro [cyclohexane-1,3′-indolin]-2′-one] | 0.06
Cc1ccc2c(NC3CC3)noc2c1-c1ccc2c(c1)NC(=O)C2(C)C [Example 6, 6-(3-(Cyclopropylamino)-6-methylbenzo[d]isoxazol-7-yl)-3,3-dimethylindolin-2-one] | 0.4
Cc1ccc2c(NC3CC3)noc2c1-c1cnc2c(c1)NC(=O)C21CCOCC1 [Example 7, 6′-(3-(cyclopropylamino)-6-methylbenzo[d]isoxazol-7-yl)-2,3,5,6-tetrahydrospiro[pyran-4,3′-pyrrolo[3,2-b]pyridin]-2′(1′H)-one] | 6.3
Cc1ccc2c(NC3CC3)noc2c1-c1cnc2c(c1)NC(=O)C21CCC(C)(O)CC1 (stereo not drawn) [Example 8, 6′-(3-(cyclopropylamino)-6-methylbenzo[d]isoxazol-7-yl)-4-hydroxy-4-methylspiro[cyclohexane-1,3′-pyrrolo[3,2-b]pyridin]-2′(1′H)-one] | 0.65
Cc1ccc2c(NC3CC3)noc2c1-c1cnc2c(c1)NC(=O)C21CCC(C)(O)CC1 (stereo not drawn) [Example 9, 6′-(3-(cyclopropylamino)-6-methylbenzo[d]isoxazol-7-yl)-4-hydroxy-4-methylspiro[cyclohexane-1,3′-pyrrolo[3,2-b]pyridin]-2′(1′H)-one] | 0.4
Cc1ccc2c(N)noc2c1-c1ccc2c(c1)NC(=O)C21CCOCC1 [Example 11, 6-(3-Amino-6-methylbenzo[d]isoxazol-7-yl)-2′,3′,5′,6′-tetrahydrospiro[indoline-3,4′-pyran]-2-one] | 10
Cc1ccc2c(N)noc2c1-c1ccc2c(c1)NC(=O)C21CCC(C)(O)CC1 (stereo not drawn) [Example 12, 6′-(3-amino-6-methylbenzo[d]isoxazol-7-yl)-4-hydroxy-4-methylspiro[cyclohexane-1,3′-indolin]-2′-one] | 0.9
Cc1ccc2c(N)noc2c1-c1ccc2c(c1)NC(=O)C21CCC(OCCN2CCOCC2)CC1 (stereo not drawn) [Example 13, 6′-(3-amino-6-methylbenzo[d]isoxazol-7-yl)-4-(2-morpholinoethoxy)spiro[cyclohexane-1,3′-indolin]-2′-one] | 3.3
Cc1ccc2c(N)noc2c1-c1ccc2c(c1)NC(=O)C21CCC(F)(F)CC1 [Example 14, 6′-(3-Amino-6-methyl-1,2-benzisoxazol-7-yl)-4,4-difluorospiro[cyclohexane-1,3′-indol]-2′(1′H)-one] | 1
Cc1ccc2c(N)noc2c1-c1ccc2c(c1)NC(=O)C2(C)C [Example 15, 6-(3-Amino-6-methyl-1,2-benzisoxazol-7-yl)-3,3-dimethyl-1,3-dihydro-2H-indol-2-one] | 38
Cc1ccn2c(NCC3CC3)nnc2c1-c1ccc2c(c1)NC(=O)C21CCCC1 [Example 20, 6′-(3-(cyclopropylmethylamino)-7-methyl-[1,2,4]triazolo[4,3-a]pyridin-8-yl)spiro[cyclopentane-1,3′-indolin]-2′-one] | 20

Source: patent US8450341B2, “Substituted indolin-2-one derivatives and their use as P38 mitogen-activated kinase inhibitors” (Almirall, S.A., priority 2008, dated 2013)
